Values after ≈ are worked out from the molar mass of the structure shown. Where two headings read alike, the source gives them in different places.
Tests used:
[1] = DPPH free radical scavenging assay; conditions: 30 min, absorbance 550 nm; average ± S.E.M
Experimental: The DPPH free radical scavenging assay was performed based on the method of Fukumoto et al. with some modification. The measurement was performed on a 96-well microplate. Microdilution series of the samples (0.2 mg/mL stock solution, dissolved in HPLC grade MeOH) were made starting with 100 μL. To each well 100 μL of DPPH reagent (100 μM in HPLC grade MeOH) was added to gain the final volume of 200 μL. The microplates were kept in dark, and the absorbance was measured after 30 min at 550 nm using a FluoStar Optima plate reader (software version 2.20R2, BMG Labtech, Ortenberg, Germany). Methanol was used as blank. The scavenging activity was calculated as Inhibition (%) = (A0 − As)/A0 × 100, and EC50 values were calculated by Graph Pad Prism (GraphPad Software, Inc., La Jolla, CA, USA).

[2] = AAPH assay (oxygen radical absorbance capacity, ORAC); conditions: concentration for 50% antioxidant capacity; average ± S.E.M
Experimental: Antioxidant capacity measurement was carried out on 96-well microplates, based on oxygen radical absorbance capacity (ORAC) assay. A 20 μL aliquot of the sample (6 dilutions with buffer from 10 μg/mL stock solution dissolved in phosphate buffer, containing 1% MeOH), 120 μL of fluorescein (dissolved in phosphate buffer, pH = 7.4, 70 nM final concentration), and 60 μL of 2,2′-azobis(2-methylpropionamidine) dihydrochloride (AAPH, dissolved in phosphate buffer, pH = 7.4, 12 mM final concentration) were pipetted into each well. Each measurement was performed twice in duplicates. Each plate contained six dilutions of trolox as the standard, and phosphate buffer as blank. Flourescence (excitation at 485 nm and emission at 520 nm) was measured over a 3 h period with 1.5-min cycle intervals by a FluoStar Optima plate-reader (BMG Labtech GmbH). The antioxidant capacity was calculated for each concentration with the following formula: antioxidant capacity = (AUCAntioxidant − AUCBlank)/AUCBlank × 100 where AUC is the area under curve obtained for the sample and blank assays. Based on the linear correlation between the concentration of the samples and the antioxidant capacity, IC50 values could be obtained, which define the concentration (in µM) of each compound required to have 50% antioxidant capacity defined by the previous equation.

[3] = GI-PAMPA permeability; conditions: for Papp at 4 h, 100 µM: PAMPA, pH 7.4; for GI-PAMPA MR (membrane retention) / GI-PAMPA Pe: PBS pH 7.4, 37 °C, 4 h
Experimental: (§1) BBB and GI permeability was determined by using tissue-specific parallel artificial membrane permeability assay (GI-PAMPA [46], BBB-PAMPA [47]) models. Briefly, a 96-well acceptor plate and a 96-well filter plate were assembled into a sandwich. The hydrophobic filter material of the 96 well filter plate was coated by the mixture of phosphatidylcholine:cholesterol 2:1 (5 µL, 4 % (w/v) in dodecane: GI-PAMPA) or by porcine brain lipid (PBL) (5 µL, 2.6 % (w/v) in dodecane:hexane 25:75 v/v%: BBB-PAMPA). Subsequently, the acceptor wells at the bottom of the sandwich were filled with 300 µL of 10 mM PBS solution with 5% DMSO adjusted to pH 7.4. The donor wells at the top of the sandwich were hydrated with 150 µL of test compound solution. The test compound solutions were prepared in 100 times dilution. Firstly, a 10 mM stock solution was prepared from the corresponding compound in DMSO, then it was diluted with PBS (pH 6.5: GI-PAMPA or pH 7.4: BBB-PAMPA) to get 5% mixture followed by filtration through a MultiScreen Solubility filter plate. The resulting sandwich was then incubated at 37 °C for 4h. After the incubation, PAMPA sandwich plates were separated and compound concentrations in donor and acceptor solutions were investigated by HPLC-DAD. HPLC analyses were performed using a Shimadzu Prominence Modular HPLC system (Shimadzu Corporation, Kyoto, Japan) on a Kinetex® 2.6mm C18 100 Å LC column (30 × 3 mm) at 45 °C. Mobile phase flow rate was 1.1 mL/min using a gradient of AcN and 0.1% (v/v) formic acid in water (from 5% AcN to 95% in 2.5 min). Chromatograms were recorded at the wavelength of 200–500 nm, integration was carried out at the UVmax of each compound. The applied injection volume was 6 μL.

[4] = BBB-PAMPA permeability; conditions: for Papp at 4 h, 100 µM: PAMPA
Experimental: as §1

[5] = Kinetic solubility in PBS; conditions: for solubility kinetic at 2 h: PBS with 5% (v/v) DMSO, pH 7.4, aqueous with cosolvent or surfactant or cyclodextrin, kinetic from dmso stock; for Kinetic Solubility: after 2 h, at 37 °C in PBS, pH 7.4, mean ± S.E.M, n = 3
Experimental: (§2) Kinetic solubility was tested with 5% (v/v) DMSO as cosolvent in phosphate buffered saline (PBS, 0.01 M phosphate buffer pH 7.4, 0.138 M NaCl, 0.0027 M KCl, without Ca^2+, Mg^2+) at room temperature for 2 h. Chemical stability was tested with 10% (v/v) DMSO as cosolvent in PBS pH 7.4 at 37 °C for 4 h. Metabolic stability was investigated on human liver microsomes (1 mg/mL), which were preincubated with 25 µM test compounds for 5 min at 37 °C in 0.1 M Tris-HCl buffer, pH 7.4 contained 6.67 mM Na-pyrophosphate, 5.56 mM MgCl2, 5.56 mM glucose-6-phosfate, 4.63 U/mL glucose-6-phosphate dehydrogenase. The reaction was initiated by adding preincubated cofactor (37 °C,10 mM NADPH). After 10, 30, and 60 min incubation at 37 °C, the reaction was stopped by adding equal volume of cooled methanol (−20 °C). The samples were centrifuged at 20,000 g for 5 min. The supernatant and all above described test solutions were analyzed by LC-MS/MS. LC-MS analysis was carried out on an Agilent 1200 liquid chromatography system coupled with an 6410 QQQ-MS (Agilent Technologies, Palo Alto, CA, USA). Analysis was on a Cortecs C18 column (150 × 4.6 mm, 2.7 µm, Waters) at 40 °C, with a mobile phase flow rate of 1.45 mL/min. Composition of eluent A was 0.1% (v/v) trifluoroacetic acid (TFA) in water (pH 1.9). A linear gradient of 0–100% B (acetonitrile (AcN) and water in 95:5 (v/v)) was applied at a range of 0–17 min, then 100% B at 17–22 min. The injection volume was set at 20 µL and chromatograms were registered at 220 ± 4 nm. The MSD operating parameters in ESI positive ionization mode were as follows: scan ion mode (100–800 m/z), drying gas temperature 350 °C, nitrogen flow rate 12 L/min, nebulizer pressure 40 psi, quadrupole temperature 100 °C, capillary voltage 4000 V, fragmentor voltage 135 V.

[6] = Chemical stability in PBS pH 7.4; conditions: between 0–2 h at 37 °C in PBS, Stable = no chemical change detected during the evaluation time (4 h)
Experimental: as §2

[7] = Metabolic stability in human liver microsomes; conditions: for CLint scaled at 25 µM / half-life at 25 µM: human, human liver microsomes, pH 7.4; for Met.stab. in HLM t1/2: human liver microsomes 1 mg/mL, 25 µM compound, 37 °C, mean ± S.E.M, n = 3; for Met.stab. in HLM Cl'int: intrinsic clearance calculated from in vitro t1/2 data in HLM
Experimental: as §2

[8] = Experimental logP in octanol-water and toluene-water systems; conditions: for ΔlogPoct_tol: logPo/w − logPtol/w; for logP at 24 h: octanol/water; for logPtol/w: toluene-water, average ± S.E.M, five parallel experiments
Experimental: Lipophilicity measurements of hydrocurcumins were performed by dissolving the compounds in the organic solvents (octanol and toluene) at 1mg/mL concentration and mixing them with water (1:5 and 1:10 ratios, each in five replicates). After 24 h the concentration of the compounds in the aqueous phase were calculated by using a calibration dilution series measured on RP-HPLC system. The concentration of the organic phase was calculated from the concentration of the aqueous phase.

[9] = set-up: method as in PMID 17999464; conditions: cited from earlier work
[10] = pH 7.4
Experimental: as §2

[11] = microsomes
Experimental: as §2

[12] = pH 7.4; remark: listed apart in the source
Experimental: as §1

## COc1cc(CCC(=O)CC(O)CCc2ccc(O)c(OC)c2)ccc1O (stereo not shown) [6HC, hexahydrocurcumin]
[1]
  IC50: 9.9 ± 0.9 µM
[2]
  IC50: 0.39 ± 0.06 µM
[3]
  Papp at 4 h, 100 µM: 0.37 ± 0.02 ×10⁻⁶ cm/s
  GI-PAMPA MR (membrane retention): 5.0 ± 0.6 %
[4]
  Papp at 4 h, 100 µM: 1.25 ± 0.01 ×10⁻⁶ cm/s
[4]; PBS pH 6.5→pH 7.4, 37 °C, 4 h
  BBB-PAMPA MR (membrane retention): 13.3 ± 0.5 %
[5]
  solubility kinetic at 2 h: 74.1 ± 0.3 µM (≈ 27.7 µg/mL)
[6]
  Chemical Stability Shelf-Life: Stable ^#
[7]
  CLint scaled at 25 µM: 3.3 mL/min/kg
[8]
  ΔlogPoct_tol: 0.46
  logP at 24 h: 2.15 ± 0.01
  logPtol/w: 1.69 ± 0.03

## COc1cc(CCC(O)CC(O)CCc2ccc(O)c(OC)c2)ccc1O (stereo not shown) [8HC, octahydrocurcumin]
[1]
  IC50: 11.4 ± 1 µM
[2]
  IC50: 0.43 ± 0.11 µM
[3]
  Papp at 4 h, 100 µM: 0.24 ± 0.01 ×10⁻⁶ cm/s
  GI-PAMPA MR (membrane retention): 4.4 ± 0.2 %
[4]
  Papp at 4 h, 100 µM: 0.97 ± 0.02 ×10⁻⁶ cm/s
[4]; PBS pH 6.5→pH 7.4, 37 °C, 4 h
  BBB-PAMPA MR (membrane retention): 8.9 ± 1.4 %
[5]
  solubility kinetic at 2 h: 72.9 ± 0.9 µM (≈ 27.4 µg/mL)
[6]
  Chemical Stability Shelf-Life: Stable ^#
[7]
  CLint scaled at 25 µM: 1.4 mL/min/kg
  half-life at 25 µM: 3.86 ± 0.56 h
[8]
  ΔlogPoct_tol: 0.75
  logP at 24 h: 2.3 ± 0.02
  logPtol/w: 1.55 ± 0.14

## COc1cc(CCC(O)CC(O)CCc2ccc(O)cc2)ccc1O (stereo not shown) [8HDC, octahydro-demethoxycurcumin]
[1]
  IC50: 33.1 ± 0.8 µM
[2]
  IC50: 0.49 ± 0.29 µM
[3]
  GI-PAMPA MR (membrane retention): 1.7 ± 0.3 %
  GI-PAMPA Pe: 2.2 ± 0.1 * ·10^−7 cm/s
[4]
  Papp at 4 h, 100 µM: 0.53 ± 0.07 ×10⁻⁶ cm/s
[4]; PBS pH 6.5→pH 7.4, 37 °C, 4 h
  BBB-PAMPA MR (membrane retention): 14.9 ± 1.9 %
[5]
  solubility kinetic at 2 h: 68.7 ± 0.7 µM (≈ 23.8 µg/mL)
[6]
  Chemical Stability Shelf-Life: Stable ^#
[7]
  CLint scaled at 25 µM: 0.9 mL/min/kg
  half-life at 25 µM: 6.08 ± 0.957 h

## COc1cc(/C=C/C(O)=C/C(=O)/C=C/c2ccc(O)cc2)ccc1O [DMC, demethoxycurcumin, reference compound]
[1]
  IC50: 16.8 ± 0.7 µM
[2]
  IC50: 0.49 ± 0.03 µM
[3]
  Papp at 4 h, 100 µM: 1.06 ± 0.06 ×10⁻⁶ cm/s
  GI-PAMPA MR (membrane retention): 85.6 ± 0.5%
[4]; PBS pH 6.5→pH 7.4, 37 °C, 4 h
  BBB-PAMPA MR (membrane retention): 98.3 ± 0.1%
[5]
  solubility kinetic at 2 h: 5.7 ± 0.9 µM (≈ 1.93 µg/mL)
[6]
  Chemical Stability Shelf-Life: 22.1 ± 0.2 min
[7]
  CLint scaled at 25 µM: 8.3 mL/min/kg
  half-life at 25 µM: 0.63 ± 0.015 h

## Cc1c(C)c2c(c(C)c1O)CCC(C)(C(=O)O)O2 (stereo not shown) [Trolox, reference compound]
[1]
  IC50: 5.6 ± 0.1 µM
[2]
  IC50: 2.02 ± 0.13 µM

## Curcumin [reference compound]
[1]
  IC50: 11.8 ± 0.1 µM
[2]
  IC50: 0.32 ± 0.1 µM
[9]
  Safe human consumption amount: up to 12 g/day
[3]
  GI-PAMPA MR (membrane retention): 90.6 ± 0.3%
  GI-PAMPA Pe: 5.0 ± 0.4 ·10^−7 cm/s
[4]; PBS pH 6.5→pH 7.4, 37 °C, 4 h
  BBB-PAMPA MR (membrane retention): 96.7 ± 0.4%
[5]
  Kinetic Solubility: 3.1 ± 0.1 µM
[6]
  Chemical Stability Shelf-Life: 29.7 ± 0.6 min
[7]
  Met.stab. in HLM t1/2: 1.18 ± 0.085 h
  Met.stab. in HLM Cl'int: 4.5 ± 0.3 mL/min/kg
[7]; semi-qualitative, by m/z change and retention time, Table S1
  Major metabolite identified in the microsomal system (LC-MS): 6HC as a major metabolite

## tetrahydro-demethoxycurcumin [4HDC]
[1]
  IC50: 14.2 ± 0.5 µM
[2]
  IC50: 0.41 ± 0.03 µM
[3]
  GI-PAMPA MR (membrane retention): 12.9 ± 1.6 %
  GI-PAMPA Pe: 20.4 ± 0.3 * ·10^−7 cm/s
[4]; PBS pH 6.5→pH 7.4, 37 °C, 4 h
  BBB-PAMPA MR (membrane retention): 40.9 ± 1.5 %
  BBB-PAMPA Pe: 20.7 ± 0.5 ·10^−7 cm/s
[5]
  Kinetic Solubility: 69.5 ± 3.1 µM
[6]
  Chemical Stability Shelf-Life: Stable ^#
[7]
  Met.stab. in HLM t1/2: 0.0722 ± 0.00033 h
  Met.stab. in HLM Cl'int: 72.0 ± 0.4 mL/min/kg

## tetrahydrocurcumin [4HC]
[1]
  IC50: 9.8 ± 0.2 µM
[2]
  IC50: 0.43 ± 0.04 µM
[10]
  Kinetic Solubility: 70.3 ± 0.2 µM
[11]; human
  Met.stab. in HLM t1/2: 4.34 ± 0.01 min
[11]
  Met.stab. in HLM Cl'int: 71.8 ± 0.1 mL/min/kg
other
  BBB-PAMPA MR (membrane retention): 34.4 ± 0.6 %
4 h, 100 µM
  BBB-PAMPA Pe: 31.3 ± 1.1 ·10^−7 cm/s
[12]; 4 h, 100 µM
  GI-PAMPA Pe: 30.3 ± 1.3 * ·10^−7 cm/s
[12]
  GI-PAMPA MR (membrane retention): 13.3 ± 0.4 %

Reference: PMC8229286, “Pharmacokinetics-Driven Evaluation of the Antioxidant Activity of Curcuminoids and Their Major Reduced Metabolites—A Medicinal Chemistry Approach” (Molecules, 2021)
